These results are taken from publication PMC10622577, “Structural basis for stabilisation of the RAD51 nucleoprotein filament by BRCA2” (Nature Communications, 2023).

The subject of experiment [1] is RAD51 NPFs. Put plainly: cryo-electron micrographs, bundling of RAD51 NPFs on uncapped DNA. Details: species or system human. The settings on record: 1:0.5 molar ratio of TR2 peptide; uncapped ss- and dsDNA; two independent repeats. From the text:
(§1) To understand the structural basis for the association of the BRCA2 C-terminus with the RAD51 nucleoprotein filament, we sought to determine the structure of a RAD51-DNA-TR2 filament by high-resolution cryo-electron microscopy (cryoEM). […] Individual filaments within a bundle appeared to be in translational register relative to each other as it was possible to obtain well-resolved 2D classes of filament pairs (Supplementary fig. 5A, Supplementary Table 1). Filament aggregation induced by TR2 complicated picking of individual filament particles and prevented structural determination by cryoEM. We therefore sought to develop a method to prepare RAD51 NPFs in the presence of TR2 peptide without causing filament bundling. We reasoned that bundling might be alleviated by capping the DNA substrate with a bulky tag, to prevent filament aggregation by steric interference. We therefore prepared ss- and dsDNA substrates with a biotin tag at either one end or both ends, that could be bound by monomeric streptavidin (mSA) (Supplementary Fig. 5B, Supplementary Table 1).
Fig. 2 BRCA2 TR2 induces bundling of RAD51 nucleoprotein filaments. A Cryo-electron micrographs of RAD51 NPFs formed on ssDNA and dsDNA in the presence of 1:0.5 molar ratio of TR2 peptide. Extensive NPF aggregation into bundles of aligned filaments is clearly visible (examples marked with dashed white boxes). Two independent repeats. […]

Experiment [2] relates to RAD51 NPFs on DNA capped at both ends with mSA. Put plainly: EMSA of TR2 binding to RAD51 NPFs on mSA-capped DNA. Details: species or system human. The settings on record: doubly-biotinylated ss- and dsDNA, mSA in 5× molar excess of biotin labels; SYBR Gold; two independent repeats.
Excerpt: as §1
Fig. 2 BRCA2 TR2 induces bundling of RAD51 nucleoprotein filaments. […]
Before electrophoresis, samples were mixed with a 0.5:1 volume of 50% (w/v) sucrose solution and analysed on a pre-run 0.5% (w/v) agarose gel in 0.5× TB buffer at 35 V for 2.5 hours at 4 °C. […]
A general note: A gel shift assay detects complexes by their altered migration in electrophoresis.

On to “DDQKNCKKRRALDFLSRLPLPPPVSPICTFVSPAAQKAFQPPRSCGTKY [TR2, BRCA2 TR2 peptide spanning amino acids 3260 to 3308]”, for which, in experiment [1], the “bundling of RAD51 NPFs” value is “extensive bundling of RAD51 NPFs with both ss- and dsDNA”. Also, the “TR2 binding by RAD51 NPFs on mSA-capped DNA” value in experiment [2] is recorded as “competent to bind the TR2 peptide”.
